Data published in PubChem BioAssay (NCI).
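48-hour exposure; five concentrations; linearly interpolated endpoints. The concentration for 50% growth inhibition is given as GI50. Definition used: TGI = concentration required for complete inhibition of growth.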

How the values were obtained:
Experiment in all cases: NCI tumour cell line growth inhibition, 48 h
SK-MEL-5 melanoma = tested on: SK-MEL-5 melanoma
A549 NSCLC = tested on: A549 NSCLC
EKVX NSCLC = tested on: EKVX NSCLC
HL-60(TB) leukemia = tested on: HL-60(TB) leukemia
U251 CNS = tested on: U251 CNS
M14 melanoma = tested on: M14 melanoma
HT29 colon = tested on: HT29 colon
MDA-MB-231 breast = tested on: MDA-MB-231 breast
SK-MEL-2 melanoma = tested on: SK-MEL-2 melanoma
MCF7 breast = tested on: MCF7 breast

Structure (SMILES)	TGI (SK-MEL-5 melanoma) [µM]	GI50 (A549 NSCLC) [µM]	TGI (A549 NSCLC) [µM]	GI50 (EKVX NSCLC) [µM]	TGI (EKVX NSCLC) [µM]	GI50 (HL-60(TB) leukemia) [µM]	TGI (HL-60(TB) leukemia) [µM]	GI50 (U251 CNS) [µM]	TGI (U251 CNS) [µM]	GI50 (M14 melanoma) [µM]	TGI (M14 melanoma) [µM]	GI50 (HT29 colon) [µM]	TGI (HT29 colon) [µM]	GI50 (MDA-MB-231 breast) [µM]	TGI (MDA-MB-231 breast) [µM]	GI50 (SK-MEL-2 melanoma) [µM]	TGI (SK-MEL-2 melanoma) [µM]	GI50 (MCF7 breast) [µM]	TGI (MCF7 breast) [µM]	GI50 (SK-MEL-5 melanoma) [µM]
COc1cc2c(cc1OCCCCCOc1cc(-c3ccc(F)cc3)nc(C)n1)N=C[C@@H]1CCCN1C2=O	> 26.2	> 41.2	> 66.3	> 50.1	> 81	> 100	> 100	> 34.8	> 86.7	> 45.5	> 65.7	> 45.1	> 100	> 39.5	> 65.5	> 48.3	> 68.7	> 23.6	> 48.8	
O=C1C(NCCO)=C(N2CC2)C(=O)C(NCCO)=C1N1CC1	> 85.5		> 100		> 100		57.6		> 71.6		> 100		> 81.8		> 100		> 73.9		> 100	
COC(=O)Nc1ccc2ccc3c(NC(=O)OC)ccc4ccc1c2c43 (tested in a mixture with another compound)	> 50	7.78	> 50	5.55	> 50	9.95	> 50	12	> 50	3.93	> 50	4.31	> 50	7.95	35.7	25.6	> 50	27.1	> 50	4.42
N#Cc1c(NC(=O)c2cccs2)[n+]([O-])c2ccccc2[n+]1[O-]	> 100	> 100	> 100	93.8	> 100	> 100	> 100	> 100	> 100	> 100	> 100	> 100	> 100	> 100	> 100	> 100	> 100	> 100	> 100	39.9
O=C(Nc1ccccc1Cl)c1cnc2ccc(C3CCNCC3)cn12	26.6	11.5	> 100	11.7	> 100	> 67.9	> 100	51.7	> 100	15.2	33.3	1.77	18.6	2.48	59.7	42.3	> 94	> 68.9	> 100	13
CCOC(=O)C1CCC/C1=N\N=C(N)N (centres undefined) (tested in a mixture with another compound)	> 100		> 100		> 100		> 100		> 100		> 100		> 100		> 100		> 100		> 100	
Cc1ccc(NC(=O)c2ccnc(C(F)(F)F)c2)cc1-c1cc(OCCO)nc(N2CCOCC2)c1	4.71	3.21	28.9	2.44	29.5	1.05	6.51	4.7	28.8	0.63	5.25	0.413	14.8	0.688	17.5	0.192	3.44	2.28	17.8	1.5
Clc1nc(Cl)c2ncn(C/C=C\Cn3cnc4c(Cl)nc(Cl)nc43)c2n1	10.5	3.67	39.4	1.97	3.76	3.64	> 100	3.5	10.6	2.15	4.19	1.69	3.35	2.72	5.95	1.75	3.66	1.39	3.21	2.92
